Test results taken from US8476197B2, “Aminopropenoates as fungicides” (priority 2009, dated 2013).
Like-named read-outs stand apart in the source and are kept apart here. Marks after values point to notes of the source that are not given here.

Columns and labels:
[1] = preparation examples, HPLC method ([a], [b] or [c]) not stated

| Structure (SMILES) | Log P (pH 2.7) | further results |
| --- | --- | --- |
| CC(C)NC(=O)/C(C#N)=C(\NC(C)c1nccs1)c1sccc1Br (stereo not drawn) | – | chromatographic logP [1]: 3.11 |
| CCC1CC1N/C(=C/C#N)c1cccnc1Cl (stereo not drawn) [3-(2-chloropyridin-3-yl)-3-[(2-ethylcyclopropyl)amino]acrylonitrile] | – | chromatographic logP [1]: 2.53 |
| N#CC=C(Cl)c1cccnc1Cl [3-chloro-3-(2-chloropyridin-3-yl)acrylonitrile] | – | chromatographic logP [1]: 1.94; LogP [1]: 2.03 |
| CC(N/C(=C(/C#N)C(=O)NC1CC1)c1cn(C)nc1C(F)F)c1nccs1 (stereo not drawn) [(2Z)-2-cyano-N-cyclopropyl-3-[3-(difluoromethyl)-1-methyl-1H-pyrazol-4-yl]-3-{[1-(1,3-thiazol-2-yl)ethyl]amino}acrylamide] | – | chromatographic logP [1]: 2.04 |
| CCNC(=S)/C(C#N)=C(\NC1CC1CC)c1cccnc1Cl (stereo not drawn) [(2Z)-3-(2-chloropyridin-3-yl)-2-cyano-N-ethyl-3-[(2-ethylcyclopropyl)amino]-prop-2-enethioamide] | – | chromatographic logP [1]: 3.87 |
| CCOC(=O)C(C#N)=C(NC(C)c1c(Cl)cccc1Cl)c1cn(C)nc1C(Cl)Cl (stereo not drawn) [Compound 1574] | 3.94^[a] | – |
| CCOC(=O)C(C#N)=C(NCc1ccc(C)c(C)n1)c1cn(C)nc1C(Cl)Cl [Compound 1575] | 2.07^[a] | – |
| CCOC(=O)C(C#N)=C(NC(C)C(C)OC)c1cn(C)nc1C(Cl)Cl (stereo not drawn) [Compound 1576] | 2.98^[a] | – |
| CCOC(=O)C(C#N)=C(NC(C)C(C)CC)c1cn(C)nc1C(Cl)Cl (stereo not drawn) [Compound 1577] | 3.8^[a] | – |
| CCOC(=O)C(C#N)=C(NC(C)c1nccs1)c1cc(Cl)sc1Cl (stereo not drawn) [Compound 1578] | 3.58^[a] | – |
| CCOC(=O)C(C#N)=C(NC(C)C(C)C)c1cc(Cl)sc1Cl (stereo not drawn) [Compound 1580] | 4.68^[a] | – |
| CCOC(=O)C(C#N)=C(NC1CCC1)c1cc(Cl)sc1Cl [Compound 1581] | 4.26^[a] | – |
| CONC(=O)C(C#N)=C(NC(C)c1ccccn1)c1cccnc1Cl (stereo not drawn) [Compound 1583] | 1.46^[a] | – |
| CCNC(=O)C(C#N)=C(NC(C)c1ccccn1)c1cccnc1Cl (stereo not drawn) [Compound 1584] | 1.93^[a] | – |
| CCOC(=O)C(C#N)=C(NC(C)C(C)C)c1cccnc1-c1ccc(OC(F)(F)F)cc1 (stereo not drawn) [Compound 1586] | – | Log P (pH 2.3): 4.39; Log P (pH 7.5): 4.41 |
| CCOC(=O)C(C#N)=C(NC(C)C1CC1)c1cc(Cl)sc1Cl (stereo not drawn) [Compound 1587] | 4.43^[a] | – |
| CCOC(=O)C(C#N)=C(NC(C)COC)c1cc(Cl)sc1Cl (stereo not drawn) [Compound 1588] | 3.78^[a] | – |
| CCOC(=O)C(C#N)=C(NC(C)C1CCC1)c1cc(Cl)sc1Cl (stereo not drawn) [Compound 1589] | 5.03^[a] | – |
| CCOC(=O)C(C#N)=C(Nc1ccccc1F)c1cccnc1Cl [Compound 1590] | – | Log P (pH 2.3): 2.87; Log P (pH 7.5): 2.85 |
| CCOC(=O)C(C#N)=C(Nc1ccn(C)c1SC)c1cccnc1Cl [Compound 1592] | – | Log P (pH 2.3): 3.01^[c]; 3.01^[b]; Log P (pH 7.5): 3.01^[c]; 3.01^[b] |
| CC(C)C(C)NC(=C(C#N)C(=O)NCCF)c1cccnc1Cl (stereo not drawn) [Compound 1593] | 2.76^[a] | – |
| CC(NC(=C(C#N)C(=O)N1CCSC1C)c1cccnc1Cl)c1nccs1 (stereo not drawn) [Compound 1594] | 2.76^[a] | – |
| CC(NC(=C(C#N)C(=O)N1CCOCC1)c1cccnc1Cl)c1nccs1 (stereo not drawn) [Compound 1595] | 1.84^[a] | – |
| COC(=O)CNC(=O)C(C#N)=C(NC(C)c1nccs1)c1cccnc1Cl (stereo not drawn) [Compound 1596] | 1.9^[a] | – |
| CCOC(=O)C(C#N)=C(Nc1ccc(F)c(F)c1)c1cccnc1Cl [Compound 1597] | – | Log P (pH 2.3): 3; Log P (pH 7.5): 2.96 |
| CCONC(=O)C(C#N)=C(NC(C)c1nccs1)c1cccnc1Cl (stereo not drawn) [Compound 1598] | 1.8^[a] | – |

| Structure (SMILES) | Log P (pH 2.7) | further results |
| --- | --- | --- |
| CC(NC(=C(C#N)C(=O)N1CCCO1)c1cccnc1Cl)c1nccs1 (stereo not drawn) [Compound 1599] | 1.9^[a] | – |
| CCOC(=O)C(C#N)=C(Nc1ccc(F)cc1F)c1cccnc1Cl [Compound 1600] | – | Log P (pH 2.3): 2.95; Log P (pH 7.5): 2.9 |
| C=CCOC(=O)C(C#N)=C(Nc1ccccc1SC)c1cccnc1Cl [Compound 1602] | – | Log P (pH 2.3): 3.32^[c]; 3.32^[b]; Log P (pH 7.5): 3.32^[c]; 3.32^[b] |
| CCOC(=O)C(C#N)=C(NC(C)C(C)OC)c1cc(Cl)sc1Cl (stereo not drawn) [Compound 1603] | 4.02^[a] | – |
| CCOC(=O)C(C#N)=C(Nc1cccc(F)c1F)c1cccnc1Cl [Compound 1604] | – | Log P (pH 2.3): 3; Log P (pH 7.5): 2.88 |
| CCOC(=O)C(C#N)=C(NC1CCCc2cccnc21)c1cccnc1Cl (stereo not drawn) [Compound 1605] | 3^[a] | – |
| CCOC(=O)C(C#N)=C(NC(C)C1CCCC1)c1cccnc1Cl (stereo not drawn) [Compound 1606] | 3.9^[a] | – |
| CCOC(=O)C(C#N)=C(NC1(C)CCC1)c1cccnc1Cl [Compound 1607] | 3.11^[a] | – |
| CCOC(=O)C(C#N)=C(NC(C)c1ccn[nH]1)c1cccnc1Cl (stereo not drawn) [Compound 1608] | 2.1^[a] | – |
| CCOC(=O)C(C#N)=C(Nc1cc(F)ccc1F)c1cccnc1Cl [Compound 1609] | – | Log P (pH 2.3): 2.95; Log P (pH 7.5): 2.83 |
| CCOC(=O)C(C#N)=C(Nc1cccc(F)c1C)c1cccnc1Cl [Compound 1610] | – | Log P (pH 2.3): 3.26; Log P (pH 7.5): 3.24 |
| CCOC(=O)C(C#N)=C(Nc1cccc(F)c1OC)c1cccnc1Cl [Compound 1611] | – | Log P (pH 2.3): 3.13^[c]; 3.13^[b]; Log P (pH 7.5): 3.13^[c]; 3.13^[b] |
| CC(C)C(C)NC(=C(C#N)C(=O)N1CCCO1)c1cccnc1Cl (stereo not drawn) [Compound 1612] | 2.55^[a] | – |
| COC1(NC(=O)C(C#N)=C(NC(C)C(C)C)c2cccnc2Cl)CC1 (stereo not drawn) [Compound 1613] | 2.75^[a] | – |
| CC(C)C(C)NC(=C(C#N)C(=O)NN(C)C)c1cccnc1Cl (stereo not drawn) [Compound 1614] | 2.08^[a] | – |
| CC(C)C(C)NC(=C(C#N)C(=O)N1CCSC1C)c1cccnc1Cl (stereo not drawn) [Compound 1615] | 3.6^[a] | – |
| CCNC(=O)C(C#N)=C(Nc1ccccc1SC)c1cccnc1Cl [Compound 1616] | – | Log P (pH 2.3): 2.85; Log P (pH 7.5): 2.82 |
| CCOC(=O)C(C#N)=C(NC(C)C(C)C)c1ccc(Cl)nc1 (stereo not drawn) [Compound 1617] | – | Log P (pH 2.3): 3.39; Log P (pH 7.5): 3.41 |
| CC(C)C(C)NC(=C(C#N)C(=O)N1CCSC1)c1cccnc1Cl (stereo not drawn) [Compound 1618] | 3.1^[a] | – |
| CON=C(C)NC(=O)C(C#N)=C(NC(C)C(C)C)c1cccnc1Cl (stereo not drawn) [Compound 1619] | 1.88^[a] | – |
| CONC(=O)C(C#N)=C(Nc1ccccc1SC)c1cccnc1Cl [Compound 1620] | – | Log P (pH 2.3): 2.19; Log P (pH 7.5): 1.96 |
| CCOC(=O)C(C#N)=C(NC1CCC1)c1ccnc(C(F)(F)F)c1Cl [Compound 1621] | 3.78^[a] | – |
| CCOC(=O)C(C#N)=C(NC(C)C1CC1)c1ccnc(C(F)(F)F)c1Cl (stereo not drawn) [Compound 1622] | 3.85^[a] | – |
| CCOC(=O)C(C#N)=C(NC(C)COC)c1ccnc(C(F)(F)F)c1Cl (stereo not drawn) [Compound 1623] | 3.46^[a] | – |
| CCOC(=O)C(C#N)=C(NC(C)C1CCCO1)c1ccnc(C(F)(F)F)c1Cl (stereo not drawn) [Compound 1624] | 3.62^[a] | – |
| CCOC(=O)C(C#N)=C(NC(C)c1ccccn1)c1ccnc(C(F)(F)F)c1Cl (stereo not drawn) [Compound 1625] | 3.33^[a] | – |

| Structure (SMILES) | Log P (pH 2.7) | further results |
| --- | --- | --- |
| CCOC(=O)C(C#N)=C(NC(C)c1nccs1)c1ccnc(C(F)(F)F)c1Cl (stereo not drawn) [Compound 1626] | 3.46^[a] | – |
| CCOC(=O)C(C#N)=C(NC(C)C(C)C)c1ccnc(C(F)(F)F)c1Cl (stereo not drawn) [Compound 1627] | 4.18^[a] | – |
| CNN(C)C(=O)C(C#N)=C(NC(C)C(C)C)c1cccnc1Cl (stereo not drawn) [Compound 1628] | 1.3^[a] | – |
| CCOC(=O)C(C#N)=C(NC(C)C1=NCCS1)c1cccnc1Cl (stereo not drawn) [Compound 1629] | 2.5^[a] | – |
| CCOC(=O)C(C#N)=C(NC1CCCCC1)c1cc(Cl)sc1Cl [Compound 1630] | 4.92^[a] | – |
| CCOC(=O)C(C#N)=C(NC(C)C(=O)NC1CCCCC1)c1cc(Cl)sc1Cl (stereo not drawn) [Compound 1631] | 3.83^[a] | – |
| CCOC(=O)C(C#N)=C(NC(C)C(=O)NC)c1cc(Cl)sc1Cl (stereo not drawn) [Compound 1632] | 2.46^[a] | – |
| CCOC(=O)C(C#N)=C(NC(C)C(C)=NOC)c1cccnc1Cl (stereo not drawn) [Compound 1633] | 2.8^[a] | – |
| CCOC(=O)C(C#N)=C(NC1CC1C1CC1)c1cccnc1Cl (stereo not drawn) [Compound 1634] | 3.13^[a] | – |
| CCOC(=O)C(C#N)=C(NC1CC1C(C)C)c1cccnc1Cl (stereo not drawn) [Compound 1635] | 3.53^[a] | – |
| CCON=C(C)C(C)NC(=C(C#N)C(=O)OCC)c1cccnc1Cl (stereo not drawn) [Compound 1636] | 3.29^[a] | – |
| CCOC(=O)C(C#N)=C(NC(C)c1nccn1C)c1cccnc1Cl (stereo not drawn) [Compound 1637] | 0.93^[a] | – |
| CCOC(=O)C(C#N)=C(NC(C)c1cc(C(F)(F)F)c(Cl)cn1)c1cccnc1Cl (stereo not drawn) [Compound 1638] | 3.9^[a] | – |
| CCOC(=O)C(C#N)=C(NC(C)c1cc(Cl)cc(Cl)n1)c1cccnc1Cl (stereo not drawn) [Compound 1639] | 3.7^[a] | – |
| CCOC(=O)C(C#N)=C(NC(C)C1CCC1)c1ccnn1C(F)F (stereo not drawn) [Compound 1640] | 3.56^[a] | – |
| CCOC(=O)C(C#N)=C(NC1(CC)CC1)c1cccnc1Cl [Compound 1641] | 3.13^[a] | – |
| CCOC(=O)C(C#N)=C(NC1(CC2CC2)CC1)c1cccnc1Cl [Compound 1642] | 3.53^[a] | – |
| CCOC(=O)C(C#N)=C(NC(C)Cc1ccccc1)c1cccnc1Cl (stereo not drawn) [Compound 1643] | 3.5^[a] | – |
| CCOC(=O)C(C#N)=C(NC(C)c1nccs1)c1ccnn1C(F)F (stereo not drawn) [Compound 1644] | 2.51^[a] | – |
| CCOC(=O)C(C#N)=C(NC(C)C(C)C)c1ccnn1C(F)F (stereo not drawn) [Compound 1645] | 3.27^[a] | – |
| CCOC(=O)C(C#N)=C(NC(C)c1ccccn1)c1ccnn1C(F)F (stereo not drawn) [Compound 1646] | 2.55^[a] | – |
| CCOC(=O)C(C#N)=C(NC(C)C1CC1)c1ccnn1C(F)F (stereo not drawn) [Compound 1647] | 3.01^[a] | – |
| CCOC(=O)C(C#N)=C(NC(C)C1CCC1)c1c(CC)nn(C)c1Cl (stereo not drawn) [Compound 1648] | 3.94^[a] | – |
| CCOC(=O)C(C#N)=C(NC(C)c1c(Cl)cccc1Cl)c1cccnc1Cl (stereo not drawn) [Compound 1649] | 3.8^[a] | – |
